Drawing on patent US20220363665A1, “QUINOLINE COMPOUNDS FOR THE TREATMENT OF AUTOIMMUNE DISEASE” (Hoffmann-La Roche Inc., priority 2019, published 2022), this text covers IC50 for 4 compounds.

Molecules are shown by their SMILES.

This assay addresses T1, human TLR9 (Homo sapiens, UniProt Q9NR96).
T1 construct: host or cells: HEK293 (HEK-Blue hTLR9)
T1 sequence (Q9NR96 26-1032): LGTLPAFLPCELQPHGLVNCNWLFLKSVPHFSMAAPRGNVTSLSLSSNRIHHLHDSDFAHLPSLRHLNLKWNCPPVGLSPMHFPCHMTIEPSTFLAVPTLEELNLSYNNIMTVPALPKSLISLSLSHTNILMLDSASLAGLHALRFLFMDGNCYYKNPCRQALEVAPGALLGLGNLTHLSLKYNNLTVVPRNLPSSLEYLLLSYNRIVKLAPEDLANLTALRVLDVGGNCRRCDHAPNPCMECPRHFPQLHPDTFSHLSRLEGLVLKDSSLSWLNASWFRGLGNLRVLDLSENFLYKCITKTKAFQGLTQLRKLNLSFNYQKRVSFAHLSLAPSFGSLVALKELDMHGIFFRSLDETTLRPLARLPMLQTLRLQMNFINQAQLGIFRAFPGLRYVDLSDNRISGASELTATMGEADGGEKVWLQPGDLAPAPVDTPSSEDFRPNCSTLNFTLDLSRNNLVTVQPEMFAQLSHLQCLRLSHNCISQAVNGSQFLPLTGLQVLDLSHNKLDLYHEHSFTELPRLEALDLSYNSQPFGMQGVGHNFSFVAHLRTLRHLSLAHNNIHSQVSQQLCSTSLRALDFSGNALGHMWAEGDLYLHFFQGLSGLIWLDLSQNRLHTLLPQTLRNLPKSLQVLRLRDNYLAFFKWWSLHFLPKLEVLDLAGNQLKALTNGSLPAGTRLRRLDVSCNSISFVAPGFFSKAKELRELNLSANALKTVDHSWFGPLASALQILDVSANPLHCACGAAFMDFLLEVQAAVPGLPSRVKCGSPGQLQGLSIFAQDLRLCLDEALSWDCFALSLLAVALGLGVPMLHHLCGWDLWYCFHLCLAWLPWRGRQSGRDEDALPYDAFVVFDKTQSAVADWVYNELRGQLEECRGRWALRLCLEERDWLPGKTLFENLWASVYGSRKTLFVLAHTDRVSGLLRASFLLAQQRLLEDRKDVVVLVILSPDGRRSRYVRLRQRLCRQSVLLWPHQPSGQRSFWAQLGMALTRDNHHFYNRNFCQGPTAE
As to the kind of experiment: HEK293-Blue-hTLR-9 cells assay (SEAP reporter, ODN2006 stimulation). It is filed as cell-based. The conditions noted are these: HEK293-Blue-hTLR9 cells, ODN2006, 20 hrs. As to the method:
The following tests were carried out in order to determine the activity of the compounds of formula (I) in HEK293-Blue-hTLR-7/8/9 cells assay.
HEK293-Blue-hTLR-9 Cells Assay:
A stable HEK293-Blue-hTLR-9 cell line was purchased from InvivoGen (Cat. #. hkb-htlr9, San Diego, Calif., USA). These cells were originally designed for studying the stimulation of human TLR9 by monitoring the activation of NF-κB. A SEAP (secreted embryonic alkaline phosphatase) reporter gene was placed under the control of the […] minimal promoter fused to five NF-κB and AP-1-binding sites. The SEAP was induced by activating NF-κB and AP-1 via stimulating HEK-Blue hTLR9 cells with TLR9 ligands. Therefore the reporter expression was declined by TLR9 antagonist under the stimulation of a ligand, such as ODN2006 (Cat. #: tlrl-2006-1, Invivogen, San Diego, Calif., USA), for incubation of 20 hrs. The cell culture supernatant SEAP reporter activity was determined using QUANTI-Blue™ kit (Cat. #: rep-qbl, Invivogen, San Diego, Calif., USA) at a wavelength of 640 nm, a detection medium that turns purple or blue in the presence of alkaline phosphatase.
HEK293-Blue-hTLR9 cells were incubated at a density of […] cells/mL in a volume of 170 μL, in a 96-well plate in Dulbecco's Modified Eagle's medium (DMEM) containing 4.5 g/L glucose, 50 U/mL penicillin, […], […], 2 mM L-glutamine, 10% (v/v) heat-inactivated fetal bovine serum with addition of 20 μL test compound in a serial dilution in the presence of final DMSO at 1% and 10 μL of 20 uM ODN2006 in above DMEM, perform incubation under 37° C. in a CO2 incubator for 20 hrs. Then 20 μL of the supernatant from each well was incubated with 180 μL Quanti-blue substrate solution at 37° C. for 2 hrs and the absorbance was read at 620˜655 nm using a spectrophotometer. The signalling pathway that TLR9 activation leads to downstream NF-κB activation has been widely accepted, and therefore similar reporter assay was modified for evaluating TLR9 antagonist.
Broadly, the IC50 is the concentration that gives 50% inhibition. Regarding `C[C@@H]1CN(c2ccc(C(F)(F)F)c3ncccc23)C[C@H](C(=O)N[C@H]2CNC[C@H]2F)O1` (single isomer, unassigned) [Example 2B], the IC50 amounted to 34.6 µM.
With `C[C@@H]1CN(c2ccc(C(F)(F)F)c3ncccc23)C[C@H](C(=O)N2CCC3(CCNC3)C2)O1` (stereo partly shown) [Example 36] the figure was 12.3 µM; with `C[C@@H]1CN(c2ccc(Br)c3ncccc23)C[C@H](C(=O)NC2CNCC2F)O1` (stereo partly drawn) [Example 41, cis-(2R,6R)-4-(8-bromo-5-quinolyl)-N-[4-fluoropyrrolidin-3-yl]-6-methyl-morpholine-2-carboxamide], 23.2 µM.
The value for `C[C@@H]1CN(c2ccc(C(F)(F)F)c3ncccc23)C[C@H](C(=O)NC2CNCC(F)(F)C2)O1` (stereo partly drawn) [Example 28, (2R,6R)-N-(5,5-difluoro-3-piperidyl)-6-methyl-4-[8-(trifluoromethyl)-5-quinolyl]morpholine-2-carboxamide] was above 100 µM.
